Measured values from patent US7041704B2, “Methods of treating gastrointestinal tract disorders using sodium channel modulators” (Dynogen Pharmaceuticals, Inc., priority 2003, dated 2006).

How the values were obtained:
[1] = molecular target: TTX-R sodium currents in GI tract afferent neurons (Rattus norvegicus, UniProt Q62968); experiment: Whole cell patch-clamp, tonic block of TTX-R sodium currents, cumulative concentration-response; type: cell-based; settings: bath application; four GI tract afferent neurons
Procedure: (§1) Labeling of GI tract afferent neurons: Adult female Sprague-Dawley rats (150–300 g) were deeply anesthetized with pentobarbital anesthesia and placed on isoflurane maintenance anesthesia. A ventral midline incision was made through the abdominal skin and musculature, exposing the GI tract. Five injections of the fluorescent dyes Di-I (5 µl each of 25 mg/ml Di-I in DMSO) or Fast Blue (4% w/v) were made into the wall of the colon to label primary afferent fibers innervating the GI tract. The areas were rinsed with sterile saline to eliminate nonspecific spread of dye, and the incision was closed. […] Labeled neurons were identified in vitro using fluorescence optics. […]
(§2) In most experiments, neurons were incubated in culture medium containing the FITC-labeled lectin BSI-B4 (IB4, […]) at 37° C. for 5 min before recording. The coverslip was washed with extracellular recording solution for 1 min before being placed in a recording chamber mounted on the stage of an inverted microscope equipped with fluorescence optics. […]
(§3) Sodium currents were recorded from DRG neurons using standard electrophysiologic protocols. […] Currents were recorded using a patch-clamp amplifier and digitized at 3–10 kHz for acquisition. Neuronal input resistance and membrane capacitance were determined from the amplitude and kinetics of the current response to a voltage pulse from a holding potential of −50 mV. […]

[2] = system: sodium currents in colon DRG neurons; experiment: Whole cell patch-clamp, activity-dependent (use-dependent) modulation of sodium currents, slow vs fast stimulation; type: cell-based, rat; settings: 100 µM lamotrigine; slow (0.2 Hz) vs fast (17 Hz) step depolarizations from −50 to 0 mV; three neurons; P<0.05 vs slow stimulation
Procedure: as §1, §2, §3

TTX-R sodium currents in GI tract afferent neurons, sequence (Q62968 whole entry, looked up): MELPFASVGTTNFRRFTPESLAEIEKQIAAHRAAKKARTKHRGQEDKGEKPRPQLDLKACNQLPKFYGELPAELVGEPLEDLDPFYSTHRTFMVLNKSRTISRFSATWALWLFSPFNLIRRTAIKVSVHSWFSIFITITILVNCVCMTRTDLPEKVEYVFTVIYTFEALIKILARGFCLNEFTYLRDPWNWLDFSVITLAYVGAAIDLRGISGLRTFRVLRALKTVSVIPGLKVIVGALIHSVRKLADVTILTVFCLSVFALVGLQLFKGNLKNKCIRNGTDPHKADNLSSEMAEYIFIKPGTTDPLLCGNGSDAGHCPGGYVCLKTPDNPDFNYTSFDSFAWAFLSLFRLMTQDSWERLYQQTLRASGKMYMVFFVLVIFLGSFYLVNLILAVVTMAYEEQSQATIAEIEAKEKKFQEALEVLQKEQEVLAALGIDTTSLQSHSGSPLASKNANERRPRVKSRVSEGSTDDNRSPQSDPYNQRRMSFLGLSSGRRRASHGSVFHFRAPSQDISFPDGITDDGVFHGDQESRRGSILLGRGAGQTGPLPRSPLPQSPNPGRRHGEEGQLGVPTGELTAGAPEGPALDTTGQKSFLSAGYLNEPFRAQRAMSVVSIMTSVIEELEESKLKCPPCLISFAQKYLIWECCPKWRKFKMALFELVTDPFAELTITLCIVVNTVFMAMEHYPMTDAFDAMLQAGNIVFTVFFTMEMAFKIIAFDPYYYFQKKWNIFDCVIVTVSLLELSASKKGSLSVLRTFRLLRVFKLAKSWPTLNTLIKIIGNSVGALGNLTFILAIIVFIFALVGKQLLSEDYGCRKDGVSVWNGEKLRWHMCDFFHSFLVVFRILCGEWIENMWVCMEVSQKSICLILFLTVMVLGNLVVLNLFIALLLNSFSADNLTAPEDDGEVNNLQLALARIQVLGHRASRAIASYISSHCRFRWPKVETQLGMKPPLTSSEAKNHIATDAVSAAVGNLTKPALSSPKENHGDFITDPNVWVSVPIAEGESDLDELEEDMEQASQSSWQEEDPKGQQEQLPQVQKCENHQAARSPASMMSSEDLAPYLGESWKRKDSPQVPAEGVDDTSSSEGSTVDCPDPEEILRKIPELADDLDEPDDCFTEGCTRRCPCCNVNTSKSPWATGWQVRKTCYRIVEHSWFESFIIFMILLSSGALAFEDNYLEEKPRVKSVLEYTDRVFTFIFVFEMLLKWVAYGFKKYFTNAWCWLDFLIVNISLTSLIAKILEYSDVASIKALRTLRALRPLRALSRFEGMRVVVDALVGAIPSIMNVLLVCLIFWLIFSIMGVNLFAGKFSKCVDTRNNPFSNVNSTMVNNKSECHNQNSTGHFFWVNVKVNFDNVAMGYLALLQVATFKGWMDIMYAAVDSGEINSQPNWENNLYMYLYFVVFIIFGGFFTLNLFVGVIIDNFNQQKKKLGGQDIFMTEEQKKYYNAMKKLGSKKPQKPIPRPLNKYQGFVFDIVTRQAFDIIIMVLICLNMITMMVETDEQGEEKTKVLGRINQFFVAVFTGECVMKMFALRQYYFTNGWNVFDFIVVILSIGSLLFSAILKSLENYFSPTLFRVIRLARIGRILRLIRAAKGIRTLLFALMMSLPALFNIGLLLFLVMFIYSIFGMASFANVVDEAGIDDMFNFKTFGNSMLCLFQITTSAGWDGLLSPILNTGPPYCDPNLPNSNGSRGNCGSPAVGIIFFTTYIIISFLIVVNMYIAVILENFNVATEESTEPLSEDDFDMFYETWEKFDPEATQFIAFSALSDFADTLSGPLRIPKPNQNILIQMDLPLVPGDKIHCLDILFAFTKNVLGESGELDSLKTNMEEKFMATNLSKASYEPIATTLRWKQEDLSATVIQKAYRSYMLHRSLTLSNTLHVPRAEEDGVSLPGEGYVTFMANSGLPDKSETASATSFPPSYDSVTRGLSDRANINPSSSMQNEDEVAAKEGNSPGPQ

Row | SMILES | block of TTX-R sodium currents (in words) [1] | mean peak sodium current amplitude (mean % control amplitude) [2]
1 | Nc1c(Br)cc(Br)cc1CNC1CCC(O)CC1 (centres unmarked) [Ambroxol] | concentration-dependent reversible block | 
2 | Nc1nnc(-c2cccc(Cl)c2Cl)c(N)n1 [lamotrigine, 6-(2,3-Dichlorophenyl)-1,2,4-triazine-3,5-diamine] |  | decreased to a greater extent under fast stimulation conditions
